In US4225526A, “8-[(4-Aminophenyl)sulfonyl]amino-2-naphthalenyl phosphorodiamidate” (Morton-Norwich Products, Inc., priority 1979, dated 1980) one finds IC50 data, which are given here for one compound.

SMILES strings stand for the structures.

The target of this experiment is T1, urease of intact Proteus mirabilis cells (Proteus mirabilis, UniProt P17086).
T1 construct: using intact Proteus mirabilis cells as the source of urease; endogenous in cells; host or cells: intact Proteus mirabilis cells
T1 sequence (P17088 whole entry): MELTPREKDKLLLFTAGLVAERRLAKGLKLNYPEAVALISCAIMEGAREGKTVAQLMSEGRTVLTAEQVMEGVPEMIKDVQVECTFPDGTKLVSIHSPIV
T1 sequence (P17087 whole entry, further chain): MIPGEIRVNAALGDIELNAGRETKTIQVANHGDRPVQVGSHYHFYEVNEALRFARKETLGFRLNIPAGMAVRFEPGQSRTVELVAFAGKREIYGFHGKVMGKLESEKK
T1 sequence (P17086 whole entry): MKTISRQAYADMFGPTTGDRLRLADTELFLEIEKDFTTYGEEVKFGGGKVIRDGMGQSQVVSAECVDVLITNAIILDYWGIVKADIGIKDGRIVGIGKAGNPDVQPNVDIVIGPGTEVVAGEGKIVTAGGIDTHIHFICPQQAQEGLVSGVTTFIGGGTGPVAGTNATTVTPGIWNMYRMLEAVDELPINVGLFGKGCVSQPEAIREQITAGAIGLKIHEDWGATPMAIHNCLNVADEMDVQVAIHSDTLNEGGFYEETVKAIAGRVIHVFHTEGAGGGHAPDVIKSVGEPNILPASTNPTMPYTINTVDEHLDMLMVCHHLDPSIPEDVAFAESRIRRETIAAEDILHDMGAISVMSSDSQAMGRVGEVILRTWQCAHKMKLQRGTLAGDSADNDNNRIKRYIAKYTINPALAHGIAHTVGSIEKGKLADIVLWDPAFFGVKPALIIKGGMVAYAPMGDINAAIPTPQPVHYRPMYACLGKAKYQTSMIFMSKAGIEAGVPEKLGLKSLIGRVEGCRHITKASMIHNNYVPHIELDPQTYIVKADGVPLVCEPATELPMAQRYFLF
In words: anti-urease potency using intact Proteus mirabilis cells. Conditions: 40 minutes preincubation, pH 8.0; ammonia formed in five minutes after addition of urea; read-out: concentration evincing 50% inhibition of the urease of intact Proteus mirabilis cells. Format: cell-based. As for the experimental part:
The anti-urease potency of the compound of this invention was determined using intact Proteus mirabilis cells as the source of urease. Compounds were preincubated with Proteus mirabilis cells suspended in a saline solution (0.1 molar) buffered with 0.1 molar tris(hydroxymethyl)aminomethane (pH 8.0). After 40 minutes preincubation, the remaining urease activity was determined by collecting the ammonia formed in five minutes after the addition of the substrate, urea. Ammonia assays were carried out according to the procedure of Seligson and Seligson [J. Lab. Clin. Med. 38, 324-330 (1951)]. Percent inhibition was calculated by comparing the amount of ammonia generated by cells preincubated with 8-[(4-aminophenyl)sulfonyl]amino-2-naphthalenyl phosphorodiamidate with the controls in which preincubation was carried out in the absence of compound.

Turning to `Nc1ccc(S(=O)(=O)Nc2cccc3ccc(OP(N)(N)=O)cc23)cc1` [this compound, 8-[(4-aminophenyl)sulfonyl]amino-2-naphthalenyl phosphorodiamidate], the IC50 amounted to 400 nM.
